Results taken from article PMC3399817 (PLoS ONE, 2012).

Key:
Assay in all cases: KINOMEscan
Assay type in all cases: binding
LIMK1 = molecular target: T1, LIMK1 (Homo sapiens, UniProt P53667); conditions: LIMK1, 1 uM
T1 construct: purchased Ambit KINOMEscan (DiscoverX)
Procedure, shortened: (§1)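 A binding-competition profile was run with every compound fixed at 1 μM; hits were kinases showing inhibited substrate binding.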

ANKK1 = molecular target: T2, ANKK1 (Homo sapiens, UniProt Q8NFD2); conditions: ANKK1, 1 uM
T2 construct: purchased Ambit KINOMEscan (DiscoverX)
Procedure, shortened: as §1

AKT2 = molecular target: T3, AKT2 (Homo sapiens, UniProt P31751); conditions: AKT2, 1 uM
T3 construct: purchased Ambit KINOMEscan (DiscoverX)
Procedure, shortened: as §1

EPHA6 = molecular target: T4, EPHA6 (Homo sapiens, UniProt Q9UF33); conditions: EPHA6, 1 uM
T4 construct: purchased Ambit KINOMEscan (DiscoverX)
Procedure, shortened: as §1

BMX = molecular target: T5, BMX (Homo sapiens, UniProt P51813); conditions: 1 uM
T5 construct: purchased Ambit KINOMEscan (DiscoverX)
Procedure, shortened: as §1

AMPK-alpha1 = molecular target: T6, AMPK-alpha1 (Homo sapiens, UniProt Q13131); conditions: AMPK-alpha1, 1 uM
T6 construct: purchased Ambit KINOMEscan (DiscoverX)
Procedure, shortened: as §1

TESK1 = molecular target: T7, TESK1 (Homo sapiens, UniProt Q15569); conditions: TESK1, 1 uM
T7 construct: purchased Ambit KINOMEscan (DiscoverX)
Procedure, shortened: as §1

PIK3CG = molecular target: T8, PIK3CG (Homo sapiens, UniProt P48736); conditions: 1 uM
T8 construct: purchased Ambit KINOMEscan (DiscoverX)
Procedure, shortened: as §1

PKAC-beta = molecular target: T9, PKAC-beta (Homo sapiens, UniProt P22694); conditions: 1 uM
T9 construct: purchased Ambit KINOMEscan (DiscoverX)
Procedure, shortened: as §1

MET(Y1235D) = molecular target: T10, MET(Y1235D) (Homo sapiens, UniProt P08581, Y1235D); conditions: 1 uM
T10 construct: purchased Ambit KINOMEscan (DiscoverX)
Procedure, shortened: as §1

KIT(V559D,V654A) = molecular target: T11, KIT(V559D,V654A) (Homo sapiens, UniProt P10721, V559D/V654A); conditions: 1 uM
T11 construct: purchased Ambit KINOMEscan (DiscoverX)
Procedure, shortened: as §1

ERBB4 = molecular target: T12, ERBB4 (Homo sapiens, UniProt Q15303); conditions: ERBB4, 1 uM
T12 construct: purchased Ambit KINOMEscan (DiscoverX)
Procedure, shortened: as §1

MAPKAPK5 = molecular target: T13, MAPKAPK5 (Homo sapiens, UniProt Q8IW41); conditions: MAPKAPK5, 1 uM
T13 construct: purchased Ambit KINOMEscan (DiscoverX)
Procedure, shortened: as §1

PAK7 = molecular target: T14, PAK7 (Homo sapiens, UniProt Q9P286); conditions: PAK7, 1 uM
T14 construct: purchased Ambit KINOMEscan (DiscoverX)
Procedure, shortened: as §1

SRPK2 = molecular target: T15, SRPK2 (Homo sapiens, UniProt P78362); conditions: SRPK2, 1 uM
T15 construct: purchased Ambit KINOMEscan (DiscoverX)
Procedure, shortened: as §1

MAP4K5 = molecular target: T16, MAP4K5 (Homo sapiens, UniProt Q9Y4K4); conditions: MAP4K5, 1 uM
T16 construct: purchased Ambit KINOMEscan (DiscoverX)
Procedure, shortened: as §1

IKK-epsilon = molecular target: T17, IKK-epsilon (Homo sapiens, UniProt Q14164); conditions: 1 uM
T17 construct: purchased Ambit KINOMEscan (DiscoverX)
Procedure, shortened: as §1

TIE2 = molecular target: T18, TIE2 (Homo sapiens, UniProt Q02763); conditions: TIE2, 1 uM
T18 construct: purchased Ambit KINOMEscan (DiscoverX)
Procedure, shortened: as §1

PRKCQ = molecular target: T19, PRKCQ (Homo sapiens, UniProt Q04759); conditions: 1 uM
T19 construct: purchased Ambit KINOMEscan (DiscoverX)
Procedure, shortened: as §1

FLT3(N841I) = molecular target: T20, FLT3(N841I) (Homo sapiens, UniProt P36888, N841I); conditions: 1 uM
T20 construct: purchased Ambit KINOMEscan (DiscoverX)
Procedure, shortened: as §1

DRAK2 = molecular target: T21, DRAK2 (Homo sapiens, UniProt O94768); conditions: DRAK2, 1 uM
T21 construct: purchased Ambit KINOMEscan (DiscoverX)
Procedure, shortened: as §1

PIP5K2B = molecular target: T22, PIP5K2B (Homo sapiens, UniProt P78356); conditions: 1 uM
T22 construct: purchased Ambit KINOMEscan (DiscoverX)
Procedure, shortened: as §1

MLK3 = molecular target: T23, MLK3 (Homo sapiens, UniProt Q16584); conditions: MLK3, 1 uM
T23 construct: purchased Ambit KINOMEscan (DiscoverX)
Procedure, shortened: as §1

MARK3 = molecular target: T24, MARK3 (Homo sapiens, UniProt P27448); conditions: MARK3, 1 uM
T24 construct: purchased Ambit KINOMEscan (DiscoverX)
Procedure, shortened: as §1

QSK = molecular target: T25, QSK (Homo sapiens, UniProt Q9Y2K2); conditions: 1 uM
T25 construct: purchased Ambit KINOMEscan (DiscoverX)
Procedure, shortened: as §1

MARK1 = molecular target: T26, MARK1 (Homo sapiens, UniProt Q9P0L2); conditions: MARK1, 1 uM
T26 construct: purchased Ambit KINOMEscan (DiscoverX)
Procedure, shortened: as §1

PIM1 = molecular target: T27, PIM1 (Homo sapiens, UniProt P11309); conditions: PIM1, 1 uM
T27 construct: purchased Ambit KINOMEscan (DiscoverX)
Procedure, shortened: as §1

[1] = molecular target: T28, RPS6KA1(Kin.Dom.1-N-terminal) (Homo sapiens, UniProt Q15418); conditions: 1 uM
T28 construct: RPS6KA1(Kin.Dom.1-N-terminal); purchased Ambit KINOMEscan (DiscoverX)
Procedure, shortened: as §1

ACVR1 = molecular target: T29, ACVR1 (Homo sapiens, UniProt Q04771); conditions: ACVR1, 1 uM
T29 construct: purchased Ambit KINOMEscan (DiscoverX)
Procedure, shortened: as §1

HIPK3 = molecular target: T30, HIPK3 (Homo sapiens, UniProt Q9H422); conditions: HIPK3, 1 uM
T30 construct: purchased Ambit KINOMEscan (DiscoverX)
Procedure, shortened: as §1

PYK2 = molecular target: T31, PYK2 (Homo sapiens, UniProt Q14289); conditions: PYK2, 1 uM
T31 construct: purchased Ambit KINOMEscan (DiscoverX)
Procedure, shortened: as §1

RIPK4 = molecular target: T32, RIPK4 (Homo sapiens, UniProt P57078); conditions: RIPK4, 1 uM
T32 construct: purchased Ambit KINOMEscan (DiscoverX)
Procedure, shortened: as §1

PRKG2 = molecular target: T33, PRKG2 (Homo sapiens, UniProt Q13237); conditions: PRKG2, 1 uM
T33 construct: purchased Ambit KINOMEscan (DiscoverX)
Procedure, shortened: as §1

CAMKK1 = molecular target: T34, CAMKK1 (Homo sapiens, UniProt Q8N5S9); conditions: CAMKK1, 1 uM
T34 construct: purchased Ambit KINOMEscan (DiscoverX)
Procedure, shortened: as §1

PIK3CA(M1043I) = molecular target: T35, PIK3CA(M1043I) (Homo sapiens, UniProt P42336, M1043I); conditions: 1 uM
T35 construct: purchased Ambit KINOMEscan (DiscoverX)
Procedure, shortened: as §1

CSNK1G2 = molecular target: T36, CSNK1G2 (Homo sapiens, UniProt P78368); conditions: CSNK1G2, 1 uM
T36 construct: purchased Ambit KINOMEscan (DiscoverX)
Procedure, shortened: as §1

MELK = molecular target: T37, MELK (Homo sapiens, UniProt Q14680); conditions: 1 uM
T37 construct: purchased Ambit KINOMEscan (DiscoverX)
Procedure, shortened: as §1

CTK = molecular target: T38, CTK (Homo sapiens, UniProt P42679); conditions: 1 uM
T38 construct: purchased Ambit KINOMEscan (DiscoverX)
Procedure, shortened: as §1

MAP3K3 = molecular target: T39, MAP3K3 (Homo sapiens, UniProt Q99759); conditions: MAP3K3, 1 uM
T39 construct: purchased Ambit KINOMEscan (DiscoverX)
Procedure, shortened: as §1

T4 sequence (Q9UF33 23-1036): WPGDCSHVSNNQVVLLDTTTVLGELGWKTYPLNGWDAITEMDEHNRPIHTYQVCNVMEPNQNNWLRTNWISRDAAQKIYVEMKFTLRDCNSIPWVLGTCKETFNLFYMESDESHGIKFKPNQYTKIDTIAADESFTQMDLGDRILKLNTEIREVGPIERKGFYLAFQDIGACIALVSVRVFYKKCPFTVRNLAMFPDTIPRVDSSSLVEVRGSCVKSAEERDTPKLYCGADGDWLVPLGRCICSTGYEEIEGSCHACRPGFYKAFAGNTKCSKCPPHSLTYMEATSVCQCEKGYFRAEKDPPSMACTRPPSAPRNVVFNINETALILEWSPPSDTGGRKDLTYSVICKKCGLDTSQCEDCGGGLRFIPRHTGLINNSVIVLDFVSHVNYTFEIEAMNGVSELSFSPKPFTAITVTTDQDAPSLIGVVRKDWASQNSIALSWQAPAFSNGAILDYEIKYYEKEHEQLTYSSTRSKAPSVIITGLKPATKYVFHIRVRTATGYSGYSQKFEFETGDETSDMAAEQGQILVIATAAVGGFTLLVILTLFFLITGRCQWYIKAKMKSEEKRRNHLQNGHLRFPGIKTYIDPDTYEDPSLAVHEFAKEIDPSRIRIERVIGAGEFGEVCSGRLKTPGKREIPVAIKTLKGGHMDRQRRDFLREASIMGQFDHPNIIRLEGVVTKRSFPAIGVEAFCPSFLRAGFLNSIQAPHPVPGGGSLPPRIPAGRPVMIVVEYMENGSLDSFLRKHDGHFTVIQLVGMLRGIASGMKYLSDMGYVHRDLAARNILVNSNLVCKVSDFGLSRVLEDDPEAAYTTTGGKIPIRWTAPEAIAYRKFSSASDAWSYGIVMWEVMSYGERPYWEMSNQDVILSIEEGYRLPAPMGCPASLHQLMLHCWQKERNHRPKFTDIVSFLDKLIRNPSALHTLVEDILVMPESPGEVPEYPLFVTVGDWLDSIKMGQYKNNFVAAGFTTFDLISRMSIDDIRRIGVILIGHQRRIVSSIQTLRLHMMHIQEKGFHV
T16 sequence (Q9Y4K4 whole entry): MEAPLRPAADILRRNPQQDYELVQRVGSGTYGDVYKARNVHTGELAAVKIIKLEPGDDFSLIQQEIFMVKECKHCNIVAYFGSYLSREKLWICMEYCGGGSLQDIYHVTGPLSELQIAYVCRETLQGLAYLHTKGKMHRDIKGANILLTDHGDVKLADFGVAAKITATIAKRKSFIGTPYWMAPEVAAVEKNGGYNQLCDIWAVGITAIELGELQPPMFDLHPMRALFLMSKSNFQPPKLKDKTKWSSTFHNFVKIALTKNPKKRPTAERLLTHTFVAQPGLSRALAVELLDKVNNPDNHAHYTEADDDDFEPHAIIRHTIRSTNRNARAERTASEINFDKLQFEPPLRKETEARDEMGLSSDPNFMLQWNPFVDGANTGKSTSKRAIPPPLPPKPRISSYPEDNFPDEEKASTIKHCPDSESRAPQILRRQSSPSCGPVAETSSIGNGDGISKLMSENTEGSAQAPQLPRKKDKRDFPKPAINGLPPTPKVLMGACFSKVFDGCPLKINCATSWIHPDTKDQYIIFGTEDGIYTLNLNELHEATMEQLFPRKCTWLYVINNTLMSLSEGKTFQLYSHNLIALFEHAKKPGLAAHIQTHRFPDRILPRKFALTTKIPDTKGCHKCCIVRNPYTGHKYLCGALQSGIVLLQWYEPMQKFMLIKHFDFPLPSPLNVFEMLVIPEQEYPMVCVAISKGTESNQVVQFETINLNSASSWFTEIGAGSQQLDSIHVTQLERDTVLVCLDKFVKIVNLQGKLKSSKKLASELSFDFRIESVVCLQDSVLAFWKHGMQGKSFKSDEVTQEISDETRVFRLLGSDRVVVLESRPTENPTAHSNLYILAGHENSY
T24 sequence (P27448 whole entry): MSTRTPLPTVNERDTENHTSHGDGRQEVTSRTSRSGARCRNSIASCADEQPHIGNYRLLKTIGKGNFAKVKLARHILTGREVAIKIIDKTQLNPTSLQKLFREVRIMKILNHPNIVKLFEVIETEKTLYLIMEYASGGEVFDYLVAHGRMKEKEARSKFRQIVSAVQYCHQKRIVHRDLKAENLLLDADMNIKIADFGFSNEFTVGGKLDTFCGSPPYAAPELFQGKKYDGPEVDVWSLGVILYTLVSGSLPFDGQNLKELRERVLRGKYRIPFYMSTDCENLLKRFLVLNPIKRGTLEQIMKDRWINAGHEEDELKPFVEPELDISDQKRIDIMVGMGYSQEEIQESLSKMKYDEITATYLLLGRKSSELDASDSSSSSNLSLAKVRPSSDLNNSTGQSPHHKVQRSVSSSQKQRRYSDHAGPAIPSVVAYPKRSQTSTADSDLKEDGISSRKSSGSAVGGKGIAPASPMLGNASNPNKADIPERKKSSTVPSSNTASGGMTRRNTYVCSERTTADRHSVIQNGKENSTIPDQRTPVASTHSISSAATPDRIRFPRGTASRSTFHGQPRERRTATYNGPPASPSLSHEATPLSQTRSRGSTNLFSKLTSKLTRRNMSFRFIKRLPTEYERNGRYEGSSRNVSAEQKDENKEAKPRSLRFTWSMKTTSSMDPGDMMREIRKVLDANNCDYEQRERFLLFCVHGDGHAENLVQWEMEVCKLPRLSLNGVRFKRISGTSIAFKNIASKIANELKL
T37 sequence (Q14680 whole entry): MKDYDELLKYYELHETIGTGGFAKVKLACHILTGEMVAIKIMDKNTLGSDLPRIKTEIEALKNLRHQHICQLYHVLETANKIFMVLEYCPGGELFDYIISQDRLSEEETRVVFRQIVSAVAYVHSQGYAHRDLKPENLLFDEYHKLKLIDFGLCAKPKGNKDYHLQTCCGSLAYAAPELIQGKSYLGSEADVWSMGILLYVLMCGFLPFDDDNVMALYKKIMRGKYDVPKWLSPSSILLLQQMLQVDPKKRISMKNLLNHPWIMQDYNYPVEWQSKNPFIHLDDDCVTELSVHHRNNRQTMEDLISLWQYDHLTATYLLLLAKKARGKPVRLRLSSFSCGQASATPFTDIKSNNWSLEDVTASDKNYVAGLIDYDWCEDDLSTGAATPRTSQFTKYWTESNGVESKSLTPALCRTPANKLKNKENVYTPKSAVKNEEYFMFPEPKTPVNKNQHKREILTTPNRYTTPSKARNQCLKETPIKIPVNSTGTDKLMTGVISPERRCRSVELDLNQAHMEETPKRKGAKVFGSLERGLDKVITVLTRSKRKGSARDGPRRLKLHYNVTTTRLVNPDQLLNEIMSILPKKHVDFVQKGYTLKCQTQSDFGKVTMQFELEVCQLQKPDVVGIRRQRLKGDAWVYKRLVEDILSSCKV
T36 sequence (P78368 whole entry): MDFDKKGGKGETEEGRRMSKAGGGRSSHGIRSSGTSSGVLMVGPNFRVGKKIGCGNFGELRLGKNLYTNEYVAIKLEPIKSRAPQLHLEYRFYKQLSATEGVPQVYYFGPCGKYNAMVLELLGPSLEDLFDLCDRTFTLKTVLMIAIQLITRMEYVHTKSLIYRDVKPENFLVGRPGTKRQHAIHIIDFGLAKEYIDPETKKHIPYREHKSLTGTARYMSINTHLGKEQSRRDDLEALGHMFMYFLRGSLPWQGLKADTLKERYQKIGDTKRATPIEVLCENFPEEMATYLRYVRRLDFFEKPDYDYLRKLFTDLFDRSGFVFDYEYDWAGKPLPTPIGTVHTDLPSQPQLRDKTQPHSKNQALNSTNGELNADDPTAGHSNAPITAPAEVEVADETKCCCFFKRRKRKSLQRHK
T25 sequence (Q9Y2K2 whole entry): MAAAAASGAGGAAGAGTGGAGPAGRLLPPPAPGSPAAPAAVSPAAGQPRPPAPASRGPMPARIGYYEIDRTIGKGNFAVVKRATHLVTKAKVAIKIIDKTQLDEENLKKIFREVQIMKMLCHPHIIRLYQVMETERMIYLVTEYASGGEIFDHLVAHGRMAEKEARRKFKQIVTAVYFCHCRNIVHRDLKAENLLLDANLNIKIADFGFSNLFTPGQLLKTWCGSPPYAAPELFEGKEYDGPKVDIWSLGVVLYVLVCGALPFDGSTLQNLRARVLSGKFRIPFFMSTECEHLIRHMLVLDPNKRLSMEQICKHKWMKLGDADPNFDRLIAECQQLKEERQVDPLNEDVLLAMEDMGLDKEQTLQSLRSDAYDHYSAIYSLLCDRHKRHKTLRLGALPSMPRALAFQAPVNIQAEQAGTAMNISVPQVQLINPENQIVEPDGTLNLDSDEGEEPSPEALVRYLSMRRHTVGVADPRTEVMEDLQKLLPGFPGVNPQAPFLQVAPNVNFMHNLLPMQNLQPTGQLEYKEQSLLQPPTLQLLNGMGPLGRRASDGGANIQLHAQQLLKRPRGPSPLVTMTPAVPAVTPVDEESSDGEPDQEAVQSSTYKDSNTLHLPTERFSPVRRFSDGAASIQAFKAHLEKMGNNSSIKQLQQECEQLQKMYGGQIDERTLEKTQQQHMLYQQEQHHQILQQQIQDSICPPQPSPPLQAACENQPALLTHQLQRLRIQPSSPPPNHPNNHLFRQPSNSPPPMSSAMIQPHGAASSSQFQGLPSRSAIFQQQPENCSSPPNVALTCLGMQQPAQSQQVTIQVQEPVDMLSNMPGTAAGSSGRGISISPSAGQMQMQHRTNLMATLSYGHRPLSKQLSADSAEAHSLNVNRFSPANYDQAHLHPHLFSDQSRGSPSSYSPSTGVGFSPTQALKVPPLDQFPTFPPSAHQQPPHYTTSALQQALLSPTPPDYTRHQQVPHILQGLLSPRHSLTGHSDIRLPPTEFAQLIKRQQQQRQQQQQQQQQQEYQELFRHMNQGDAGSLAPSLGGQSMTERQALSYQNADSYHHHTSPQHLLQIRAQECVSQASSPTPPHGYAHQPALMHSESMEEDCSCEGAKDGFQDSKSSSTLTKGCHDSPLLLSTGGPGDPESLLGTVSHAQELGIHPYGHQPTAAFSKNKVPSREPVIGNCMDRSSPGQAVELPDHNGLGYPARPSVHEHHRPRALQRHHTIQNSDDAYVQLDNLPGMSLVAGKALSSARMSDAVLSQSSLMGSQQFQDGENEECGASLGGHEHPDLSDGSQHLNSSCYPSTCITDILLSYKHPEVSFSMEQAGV

SMILES | % binding compared to no inhibitor control (LIMK1) | % binding compared to no inhibitor control (ANKK1) | % binding compared to no inhibitor control (AKT2) | % binding compared to no inhibitor control (EPHA6) | % binding compared to no inhibitor control (BMX) | % binding compared to no inhibitor control (AMPK-alpha1) | % binding compared to no inhibitor control (TESK1) | % binding compared to no inhibitor control (PIK3CG) | % binding compared to no inhibitor control (PKAC-beta) | % binding compared to no inhibitor control (MET(Y1235D)) | % binding compared to no inhibitor control (KIT(V559D,V654A)) | % binding compared to no inhibitor control (ERBB4) | % binding compared to no inhibitor control (MAPKAPK5) | % binding compared to no inhibitor control (PAK7) | % binding compared to no inhibitor control (SRPK2) | % binding compared to no inhibitor control (MAP4K5) | % binding compared to no inhibitor control (IKK-epsilon) | % binding compared to no inhibitor control (TIE2) | % binding compared to no inhibitor control (PRKCQ) | % binding compared to no inhibitor control (FLT3(N841I)) | other results
COc1ccc(-c2cc3nccn3c(Nc3ncccc3C(N)=O)n2)cc1OC.Cl.Cl [BAY61-3606, 2-[7-(3,4-dimethoxyphenyl)-imidazo [1,2-c]pyrimidin-5-ylamino] nicotinamide dihydrochloride, reference compound] | 100% | 21% | 79% | 97% | 95% | 92% | 90% | 26% | 76% | 100% | 71% | 90% | 100% | 72% | 53% | 80% | 33% | 100% | 88% | 1.5% | % binding compared to no inhibitor control (DRAK2): 15%; % binding compared to no inhibitor control (PIP5K2B): 100%; % binding compared to no inhibitor control (MLK3): 77%; % binding compared to no inhibitor control (MARK3): 100%; % binding compared to no inhibitor control (QSK): 100%; % binding compared to no inhibitor control (MARK1): 100%; % binding compared to no inhibitor control (PIM1): 78%; % binding compared to no inhibitor control [1]: 96%; % binding compared to no inhibitor control (ACVR1): 78%; % binding compared to no inhibitor control (HIPK3): 36%; % binding compared to no inhibitor control (PYK2): 94%; % binding compared to no inhibitor control (RIPK4): 19%; % binding compared to no inhibitor control (PRKG2): 70%; % binding compared to no inhibitor control (CAMKK1): 48%; % binding compared to no inhibitor control (PIK3CA(M1043I)): 80%; % binding compared to no inhibitor control (CSNK1G2): 100%; % binding compared to no inhibitor control (MELK): 87%; % binding compared to no inhibitor control (CTK): 44%; % binding compared to no inhibitor control (MAP3K3): 97%
COc1ccccc1Nc1nc(-c2ccc(OC)c(OC)c2)cc2nccn12 [BAY derivative 6] | 91% | 100% | 100% | 100% | 95% | 100% | 100% | 100% | 95% | 100% | 100% | 100% | 100% | 98% | 90% | 100% | 96% | 100% | 100% | 53% | % binding compared to no inhibitor control (DRAK2): 100%; % binding compared to no inhibitor control (PIP5K2B): 100%; % binding compared to no inhibitor control (MLK3): 100%; % binding compared to no inhibitor control (MARK3): 100%; % binding compared to no inhibitor control (QSK): 87%; % binding compared to no inhibitor control (MARK1): 100%; % binding compared to no inhibitor control (PIM1): 100%; % binding compared to no inhibitor control [1]: 82%; % binding compared to no inhibitor control (ACVR1): 98%; % binding compared to no inhibitor control (HIPK3): 95%; % binding compared to no inhibitor control (PYK2): 100%; % binding compared to no inhibitor control (RIPK4): 93%; % binding compared to no inhibitor control (PRKG2): 100%; % binding compared to no inhibitor control (CAMKK1): 100%; % binding compared to no inhibitor control (PIK3CA(M1043I)): 100%; % binding compared to no inhibitor control (CSNK1G2): 100%; % binding compared to no inhibitor control (MELK): 91%; % binding compared to no inhibitor control (CTK): 98%; % binding compared to no inhibitor control (MAP3K3): 85%
